# Assay results: US20240109934A1, “ANTIBIOTICS WITH IMPROVED DRUG RESISTANCE PROFILE” (priority 2021, published 2024)
# Read-outs that look alike come from different tables or passages of the source.
# How the values were obtained:
# S. aureus ATCC 29213 [1] = test: MIC by micro-dilution broth method (CLSI); format: cell-based; conditions: for Antibacterial activity relative to FA: S. aureus ATCC 29213 MIC; for MIC: Staphylococcus aureus, ATCC29213, WT S. aureus ATCC 29213, n = 3, read-out: MIC Without Human Serum
# [2] = test system: human foreskin fibroblasts (HFF-1); test: Cell viability, Alamar Blue assay; format: cell-based; conditions: 72 h incubation, error SEM n = 2, read-out: IC50, Mammalian Toxicity in HFF-1
# Experimental: Cell Culture. HFF-1 cells were obtained from ATCC. HFF-1 cells were grown in DMEM with 15% fetal bovine serum (Gemini Benchmark, Cat #100-106), 100 U/mL penicillin, and 100 μg/mL streptomycin. All cells were cultured at 37° C. in a 5% CO2 environment. Media was prepared by the University of Illinois School of Chemical Sciences Cell Media Facility.
# Cell Viability. Cells were harvested, seeded in a 96 well-plate and allowed to adhere. Cells were treated with investigational compounds in DMSO (1% final concentration). Cells were incubated for 72 h before viability was assessed by the Alamar Blue Assay. Raptinal ([…]) was used as a dead control.
# S. aureus 29213 = test: MIC shift with 50% human serum; format: cell-based; conditions: S. aureus 29213, 50% human serum vs none
# Experimental: Antimicrobial Susceptibility Tests. Susceptibility testing was performed in biological triplicate, using the micro-dilution broth method as outlined by the Clinical and Laboratory Standards Institute. […] Human serum (Ultrafiltrate, unspecified gender, 30K Dalton membrane filtered) was purchased from BioIVT (Hicksville, NY).
# S. aureus ATCC 29213 [3] = test: Resistance frequency, large inoculum method; format: cell-based; conditions: head-to-head with FA, 2×-32× the MIC
# Experimental: Selection of Resistant Mutants. Resistant mutants were selected via the large inoculum method. Briefly, S. aureus ATCC 29213 (1×10^9 CFU) were plated on 100 mm plates of LB agar containing 4, 2, 1, 0.5, and 0.25 μg/mL.
# [4] = Mouse liver microsome stability assay; format: in vitro ADME; conditions: 3 h at 37° C., LC-MS/MS, ± SEM of 3 biological replicates
# Experimental: Mouse Liver Microsome Stability Assay. A mixture of PBS (pH 7.4), NADPH regenerating system solution A (Corning Life Sciences), and NADPH regenerating system solution B (Corning Life Sciences) was incubated at 37° C. in a shaking incubator for 5 min. Next, compound was added in DMSO (final concentration 50 μM, 0.5% DMSO) before ice-cold mouse liver microsomes (Thermo Fisher, male CD-1 mice, pooled) were added (final protein concentration of 1 mg/mL). An aliquot was immediately removed, quenched with an equal volume of 100 μM internal standard and centrifuged at 13,000 rcf for 3 min. The reactions were incubated at 37° C. in a shaking incubator for 3 h. A second aliquot was removed and quenched. Samples were analyzed with the 5500 QTRAP LC/MS/MS system (Sciex, Framingham, MA) in Metabolomics Lab of Roy J. Carver Biotechnology Center, University of Illinois at Urbana-Champaign. Software Analyst 1.6.2 was used for data acquisition and analysis. The 1200 series HPLC system (Agilent Technologies, Santa Clara, CA) includes a degasser, an autosampler, and a binary pump. The LC separation was performed on an Agilent Sb-Aq column (4.6×50 mm, […]) with mobile phase A (0.1% formic acid in water) and mobile phase B (0.1% formic acid in acetonitrile). The flow rate was 0.3 mL/min. The linear gradient was as follows: 0-3 min, 100% A; 10-16 min, 5% A; 16.5-22 min, 100% A. The autosampler was set at 10° C. The injection volume was 1 μL. Mass spectra were acquired under both positive (ion spray voltage was +5500 V) and negative (ion spray voltage was −4500 V) electrospray ionization (ESI). The source temperature was 450° C. The curtain gas, ion source gas 1, and ion source gas 2 were 33, 65, and 60 psi, respectively. Multiple reaction monitoring (MRM) was used for quantitation.
# [5] = test system: multidrug-resistant clinical isolates of S. aureus; test: MIC against multidrug-resistant clinical isolates of S. aureus; format: cell-based; conditions: Staphylococcus aureus
# [6] = test system: multidrug-resistant clinical isolates of E. faecium; test: MIC against multidrug-resistant clinical isolates of E. faecium; format: cell-based
structure (smiles),measurement,setting,value
"CC(=O)O[C@H]1C[C@@]2(C)[C@@H](C[C@@H](O)[C@H]3[C@@]4(C)CC[C@@H](O)[C@@H](C)[C@@H]4CC[C@@]32C)/C1=C(\CCC=C(Cl)Cl)C(=O)O [Compound 15, (Z)-2-((3R,4S,5S,8S,9S,10S,11R,13R,14S,16S)-16-acetoxy-3,11-dihydroxy-4,8,10,14-tetramethylhexadecahydro-17H-cyclopenta[a]phenanthren-17-ylidene)-6,6-dichlorohex-5-enoic acid]",Antibacterial activity relative to FA,S. aureus ATCC 29213 [1],modest decreases in potency relative to FA
"CC(=O)O[C@H]1C[C@@]2(C)[C@@H](C[C@@H](O)[C@H]3[C@@]4(C)CC[C@@H](O)[C@@H](C)[C@@H]4CC[C@@]32C)/C1=C(\CCC=C(Br)Br)C(=O)O [Compound 16, (Z)-2-((3R,4S,5S,8S,9S,10S,11R,13R,14S,16S)-16-acetoxy-3,11-dihydroxy-4,8,10,14-tetramethylhexadecahydro-17H-cyclopenta[a]phenanthren-17-ylidene)-6,6-dibromohex-5-enoic acid]",Antibacterial activity relative to FA,S. aureus ATCC 29213 [1],equipotent activity to FA
same,MIC,S. aureus ATCC 29213 [1],0.125 µg/mL
same,IC50,[2],75 ± 3 µM
same,IC50,"[2]; Homo sapiens, HFF-1, 72 h",> 50 µM
same,Fold Change Increase in MIC with 50% Human Serum,S. aureus 29213,32X
same,Resistance frequency relative to FA,S. aureus ATCC 29213 [3],worse resistance frequency relative to FA
same,Metabolic Stability in Mouse Liver Microsomes (percent remaining),[4],88 ± 2%
"CC(=O)O[C@H]1C[C@@]2(C)[C@@H](C[C@@H](O)[C@H]3[C@@]4(C)CC[C@@H](O)[C@@H](C)[C@@H]4CC[C@@]32C)/C1=C(\CCC=C(I)I)C(=O)O [Compound 17, (Z)-2-((3R,4S,5S,8S,9S,10S,11R,13R,14S,16S)-16-acetoxy-3,11-dihydroxy-4,8,10,14-tetramethylhexadecahydro-17H-cyclopenta[a]phenanthren-17-ylidene)-6,6-diiodohex-5-enoic acid]",Antibacterial activity relative to FA,S. aureus ATCC 29213 [1],modest decreases in potency relative to FA
"CC(=O)O[C@H]1C[C@@]2(C)[C@@H](C[C@@H](O)[C@H]3[C@@]4(C)CC[C@@H](O)[C@@H](C)[C@@H]4CC[C@@]32C)/C1=C(\CCC=C(F)F)C(=O)O [Compound 19, (Z)-2-((3R,4S,5S,8S,9S,10S,11R,13R,14S,16S)-16-acetoxy-3,11-dihydroxy-4,8,10,14-tetramethylhexadecahydro-17H-cyclopenta[a]phenanthren-17-ylidene)-6,6-difluorohex-5-enoic acid]",Antibacterial activity relative to FA,S. aureus ATCC 29213 [1],modest decreases in potency relative to FA
C=CCC/C(C(=O)O)=C1/[C@@H](OC(C)=O)C[C@@]2(C)[C@H]1C[C@@H](O)[C@H]1[C@@]3(C)CC[C@@H](O)[C@@H](C)[C@@H]3CC[C@@]12C [Compound 21],Antibacterial activity relative to FA,S. aureus ATCC 29213 [1],modest decreases in potency relative to FA
"CC(=O)O[C@H]1C[C@@]2(C)[C@@H](C[C@@H](O)[C@H]3[C@@]4(C)CC[C@@H](O)[C@@H](C)[C@@H]4CC[C@@]32C)/C1=C(\CCC=C1CCOCC1)C(=O)O [Compound 27, (Z)-2-((3R,4S,5S,8S,9S,10S,11R,13R,14S,16S)-16-acetoxy-3,11-dihydroxy-4,8,10,14-tetramethylhexadecahydro-17H-cyclopenta[a]phenanthren-17-ylidene)-5-(tetrahydro-4H-pyran-4-ylidene)pentanoic acid]",Antibacterial activity relative to FA,S. aureus ATCC 29213 [1],equipotent activity to FA
same,MIC,S. aureus ATCC 29213 [1],0.125 µg/mL
same,Fold Change Increase in MIC with 50% Human Serum,S. aureus 29213,32X
same,Resistance frequency relative to FA,S. aureus ATCC 29213 [3],worse resistance frequency relative to FA
same,Metabolic Stability in Mouse Liver Microsomes (percent remaining),[4],86 ± 5%
"CC(=O)O[C@H]1C[C@@]2(C)[C@@H](C[C@@H](O)[C@H]3[C@@]4(C)CC[C@@H](O)[C@@H](C)[C@@H]4CC[C@@]32C)/C1=C(\CCCC(C)C)C(=O)O [Compound 28, (Z)-2-((3R,4S,5S,8S,9S,10S,11R,13R,14S,16S)-16-acetoxy-3,11-dihydroxy-4,8,10,14-tetramethylhexadecahydro-17H-cyclopenta[a]phenanthren-17-ylidene)-6-methylheptanoic acid]",Antibacterial activity relative to FA,S. aureus ATCC 29213 [1],modest decreases in potency relative to FA
"CN[C@H](CC(C)C)C(=O)N[C@H]1C(=O)N[C@@H](CC(N)=O)C(=O)N[C@H]2C(=O)N[C@H]3C(=O)N[C@H](C(=O)N[C@H](C(=O)O)c4cc(O)cc(O)c4-c4cc3ccc4O)[C@H](O)c3ccc(c(Cl)c3)Oc3cc2cc(c3O[C@@H]2O[C@H](CO)[C@@H](O)[C@H](O)[C@H]2O[C@H]2C[C@](C)(N)[C@H](O)[C@H](C)O2)Oc2ccc(cc2Cl)[C@H]1O [Vancomycin, vancomycin]",MIC,"[5]; NRS3, S. aureus NRS3 (NARSA)",4 µg/mL
same,MIC,"[5]; NRS4, S. aureus NRS4 (NARSA)",4 µg/mL
same,MIC,"[5]; NRS17, S. aureus NRS17 (NARSA)",8 µg/mL
same,MIC,"[5]; NRS18, S. aureus NRS18 (NARSA)",4 µg/mL
same,MIC,"[5]; NRS21, S. aureus NRS21 (NARSA)",4 µg/mL
same,MIC,"[5]; NRS22, S. aureus NRS22 (NARSA)",4 µg/mL
same,MIC,"[5]; NRS23, S. aureus NRS23 (NARSA)",4 µg/mL
same,MIC,"[5]; NRS24, S. aureus NRS24 (NARSA)",4 µg/mL
same,MIC,"[5]; NRS26, S. aureus NRS26 (NARSA)",2 µg/mL
same,MIC,"[5]; NRS27, S. aureus NRS27 (NARSA)",4 µg/mL
same,MIC,"[5]; NRS29, S. aureus NRS29 (NARSA)",2 µg/mL
same,MIC,"[5]; NRS51, S. aureus NRS51 (NARSA)",4 µg/mL
same,MIC,"[5]; NRS68, S. aureus NRS68 (NARSA)",4 µg/mL
same,MIC,"[5]; NRS73, S. aureus NRS73 (NARSA)",4 µg/mL
same,MIC,"[5]; NRS74, S. aureus NRS74 (NARSA)",8 µg/mL
same,MIC,"[5]; NRS76, S. aureus NRS76 (NARSA)",4 µg/mL
same,MIC,"[5]; NRS77, S. aureus NRS77 (NARSA), no noted resistance",1 µg/mL
same,MIC,"[5]; NRS382, S. aureus NRS382 (NARSA)",2 µg/mL
same,MIC,"[5]; NRS383, S. aureus NRS383 (NARSA)",0.5 µg/mL
same,MIC,"[5]; NRS384, S. aureus NRS384 (NARSA)",1 µg/mL
same,MIC,[5]; S. aureus AR0561 (CDC),1 µg/mL
same,MIC,[5]; S. aureus AR0562 (CDC),2 µg/mL
same,MIC,[5]; S. aureus AR0563 (CDC),1 µg/mL
same,MIC,[5]; S. aureus AR0564 (CDC),2 µg/mL
same,MIC,[5]; S. aureus AR0565 (CDC),2 µg/mL
same,MIC,[5]; S. aureus AR0566 (CDC),0.5 µg/mL
same,MIC,[5]; S. aureus AR0567 (CDC),1 µg/mL
same,MIC,[5]; S. aureus AR0568 (CDC),0.5 µg/mL
same,MIC,[5]; S. aureus AR0570 (CDC),1 µg/mL
same,MIC,"[6]; Enterococcus faecium, E. faecium AR0572 (CDC)",512 µg/mL
same,MIC,"[6]; Enterococcus faecium, E. faecium AR0574 (CDC)",0.5 µg/mL
same,MIC,"[6]; Enterococcus faecium, E. faecium AR0575 (CDC)",512 µg/mL
same,MIC,"[6]; Enterococcus faecium, E. faecium AR0576 (CDC)",1 µg/mL
same,MIC,"[6]; Enterococcus faecium, E. faecium AR0578 (CDC)",0.5 µg/mL
same,MIC,"[6]; Enterococcus faecium, E. faecium AR0579 (CDC)",0.5 µg/mL
same,MIC,[6]; VRE with high levels of vancomycin resistance,512 µg/mL
